Laboratory results taken from patent publication US11445724B2, “Insecticidal compounds” (SYNGENTA PARTICIPATIONS AG, priority 2013, dated 2022).

What was measured:
Type in all cases: in vivo
[1] = test system: Plutella xylostella (Diamond back moth); assay: Plutella xylostella (Diamond back moth) larval mortality, artificial diet in 24-well MTP; settings: 144 h, application rate 200 ppm (concentration in well 18 ppm), L2 larvae, larval mortality after 6 days
[2] = test system: Diabrotica balteata (Corn root worm); assay: Diabrotica balteata (Corn root worm) larval mortality, artificial diet in 24-well MTP; settings: 120 h, application rate 200 ppm (concentration in well 18 ppm), L2 larvae, larval mortality after 5 days
[3] = test system: Thrips tabaci (Onion thrips); assay: Thrips tabaci (Onion thrips) mortality, sprayed sunflower leaf discs; settings: foliar, 168 h, 200 ppm spray on sunflower leaf discs, mixed ages, mortality after 7 days
[4] = test system: Spodoptera littoralis (Egyptian cotton leafworm); assay: Spodoptera littoralis (Egyptian cotton leafworm) mortality, sprayed cotton leaf discs; settings: foliar, 72 h, 200 ppm spray on cotton leaf discs, L1 larvae, mortality 3 DAT
[5] = test system: Myzus persicae (Green peach aphid); assay: Myzus persicae (Green peach aphid) mortality, sprayed sunflower leaf discs; settings: foliar, 144 h, 200 ppm spray on sunflower leaf discs, mixed ages, mortality 6 DAT

Measured: pest or weed control at 200 ppm

CCN(C(=O)c1ccc(F)cc1C)c1cccc(C(=O)Nc2c(Cl)cc(C(F)(C(F)(F)F)C(F)(F)F)cc2OC(F)F)c1OC [Compound 150]
not listed: [5]
≥ 80%: all other assays above

COc1c(NC(=O)c2cc(C(F)(F)F)ccc2F)cccc1C(=O)Nc1c(Cl)cc(C(F)(C(F)(F)F)C(F)(F)F)cc1OC(F)F [Compound 98]
≥ 80%: [4]

O=C(Nc1cccc(C(=O)Nc2c(Cl)cc(C(F)(C(F)(F)F)C(F)(F)F)cc2OC(F)F)c1F)c1cc(C(F)(F)F)ccc1F [Compound 80]
not listed: [5]
≥ 80%: all other assays above

CCN(C(=O)c1ccccc1C)c1cccc(C(=O)Nc2c(Cl)cc(C(F)(C(F)(F)F)C(F)(F)F)cc2OC(F)F)c1OC [Compound 146]
≥ 80%: [1] | [2] | [4]

CCN(C(=O)c1ccc(C)cc1)c1cccc(C(=O)Nc2c(Br)cc(C(F)(C(F)(F)F)C(F)(F)F)cc2OC(F)F)c1OC [Compound 132]
≥ 80%: all assays above

COc1c(NC(=O)c2cccc(F)c2F)cccc1C(=O)Nc1c(Cl)cc(C(F)(C(F)(F)F)C(F)(F)F)cc1OC(F)F [Compound 96]
≥ 80%: [1] | [5] | [4]

CCN(C(=O)c1ccccc1C(F)(F)F)c1cccc(C(=O)Nc2c(Cl)cc(C(F)(C(F)(F)F)C(F)(F)F)cc2OC(F)F)c1OC [Compound 157]
not listed: [5]
≥ 80%: all other assays above

COc1c(NC(=O)c2cccc(F)c2F)cccc1C(=O)Nc1c(Br)cc(C(F)(C(F)(F)F)C(F)(F)F)cc1OC(F)F [Compound 69]
≥ 80%: all assays above

COc1c(NC(=O)c2ccccc2F)cccc1C(=O)Nc1c(Cl)cc(C(F)(C(F)(F)F)C(F)(F)F)cc1OC(F)F [Compound 75]
≥ 80%: [1] | [3] | [4]

CCN(C(=O)c1ccccc1Cl)c1cccc(C(=O)Nc2c(Cl)cc(C(F)(C(F)(F)F)C(F)(F)F)cc2OC(F)F)c1OC [Compound 147]
≥ 80%: all assays above

O=C(Nc1cccc(C(=O)Nc2c(Cl)cc(C(F)(C(F)(F)F)C(F)(F)F)cc2OC(F)F)c1F)c1ccccc1OC(F)(F)F [Compound 65]
≥ 80%: [4]

CCN(C(=O)c1ccccc1C(F)(F)F)c1cccc(C(=O)Nc2c(Br)cc(C(F)(C(F)(F)F)C(F)(F)F)cc2OC(F)F)c1OC [Compound 140]
≥ 80%: all assays above

COc1c(NC(=O)c2cc(Cl)ccc2F)cccc1C(=O)Nc1c(Cl)cc(C(F)(C(F)(F)F)C(F)(F)F)cc1OC(F)F [Compound 85]
≥ 80%: [4]

CCN(C(=O)c1cccc(F)c1F)c1cccc(C(=O)Nc2c(Br)cc(C(F)(C(F)(F)F)C(F)(F)F)cc2OC(F)F)c1OC [Compound 142]
≥ 80%: all assays above

COc1ccccc1C(=O)Nc1cccc(C(=O)Nc2c(Br)cc(C(F)(C(F)(F)F)C(F)(F)F)cc2OC(F)F)c1OC [Compound 58]
not listed: [5]
≥ 80%: all other assays above

CCN(C(=O)c1cc(Cl)ccc1F)c1cccc(C(=O)Nc2c(Br)cc(C(F)(C(F)(F)F)C(F)(F)F)cc2OC(F)F)c1OC [Compound 134]
not listed: [5]
≥ 80%: all other assays above

O=C(Nc1cccc(C(=O)Nc2c(Br)cc(C(F)(C(F)(F)F)C(F)(F)F)cc2OC(F)F)c1F)c1ccccc1C(F)(F)F [Compound 34]
≥ 80%: [1] | [3] | [4]

COc1c(NC(=O)c2cc(C(F)(F)F)ccc2F)cccc1C(=O)Nc1c(Br)cc(C(F)(C(F)(F)F)C(F)(F)F)cc1OC(F)F [Compound 73]
≥ 80%: [5] | [4]

O=C(Nc1cccc(C(=O)Nc2c(Br)cc(C(F)(C(F)(F)F)C(F)(F)F)cc2OC(F)F)c1F)c1cc(C(F)(F)F)ccc1F [Compound 42]
not listed: [5]
≥ 80%: all other assays above

CCN(C(=O)c1ccccc1F)c1cccc(C(=O)Nc2c(Cl)cc(C(F)(C(F)(F)F)C(F)(F)F)cc2OC(F)F)c1OC [Compound 145]
not listed: [5]
≥ 80%: all other assays above

CCN(C(=O)c1ccc(F)c(C(F)(F)F)c1)c1cccc(C(=O)Nc2c(Br)cc(C(F)(C(F)(F)F)C(F)(F)F)cc2OC(F)F)c1OC [Compound 163]
≥ 80%: [1] | [2] | [3]

CCN(C(=O)c1ccccc1Cl)c1cccc(C(=O)Nc2c(Br)cc(C(F)(C(F)(F)F)C(F)(F)F)cc2OC(F)F)c1OC [Compound 131]
≥ 80%: all assays above

COc1ccccc1C(=O)Nc1cccc(C(=O)Nc2c(Cl)cc(C(F)(C(F)(F)F)C(F)(F)F)cc2OC(F)F)c1OC [Compound 91]
≥ 80%: [1] | [2] | [4]

CCN(C(=O)c1ccccc1C)c1cccc(C(=O)Nc2c(Br)cc(C(F)(C(F)(F)F)C(F)(F)F)cc2OC(F)F)c1OC [Compound 130]
≥ 80%: [1] | [2] | [4]

COc1c(NC(=O)c2ccccc2OC(F)(F)F)cccc1C(=O)Nc1c(Cl)cc(C(F)(C(F)(F)F)C(F)(F)F)cc1OC(F)F [Compound 90]
not listed: [5]
≥ 80%: all other assays above

COc1c(NC(=O)c2ccc(F)c(C(F)(F)F)c2)cccc1C(=O)Nc1c(Cl)cc(C(F)(C(F)(F)F)C(F)(F)F)cc1OC(F)F [Compound 88]
≥ 80%: [1] | [3] | [4]

O=C(Nc1cccc(C(=O)Nc2c(Cl)cc(C(F)(C(F)(F)F)C(F)(F)F)cc2OC(F)F)c1F)c1cc(Cl)ccc1F [Compound 55]
not listed: [5]
≥ 80%: all other assays above

CCN(C(=O)c1ccccc1C(F)(F)F)c1cccc(C(=O)Nc2c(Cl)cc(C(F)(C(F)(F)F)C(F)(F)F)cc2OC(F)F)c1F [Compound 121]
not listed: [5]
≥ 80%: all other assays above

CCN(C(=O)c1ccc(F)cc1F)c1cccc(C(=O)Nc2c(Br)cc(C(F)(C(F)(F)F)C(F)(F)F)cc2OC(F)F)c1OC [Compound 143]
≥ 80%: all assays above

CCN(C(=O)c1cc(C(F)(F)F)ccc1F)c1cccc(C(=O)Nc2c(Br)cc(C(F)(C(F)(F)F)C(F)(F)F)cc2OC(F)F)c1OC [Compound 144]
≥ 80%: [1] | [3] | [4]

CCN(C(=O)c1ccccc1OC(F)(F)F)c1cccc(C(=O)Nc2c(Cl)cc(C(F)(C(F)(F)F)C(F)(F)F)cc2OC(F)F)c1OC [Compound 153]
≥ 80%: [2] | [3]

CCN(C(=O)c1cc(Cl)ccc1F)c1cccc(C(=O)Nc2c(Cl)cc(C(F)(C(F)(F)F)C(F)(F)F)cc2OC(F)F)c1OC [Compound 151]
not listed: [5]
≥ 80%: all other assays above

CCN(C(=O)c1ccc([N+](=O)[O-])cc1)c1cccc(C(=O)Nc2c(Cl)cc(C(F)(C(F)(F)F)C(F)(F)F)cc2OC(F)F)c1OC [Compound 148]
≥ 80%: [2] | [3]

O=C(Nc1cccc(C(=O)Nc2c(Cl)cc(C(F)(C(F)(F)F)C(F)(F)F)cc2OC(F)F)c1F)c1ccccc1C(F)(F)F [Compound 72]
≥ 80%: [1] | [4]

CCN(C(=O)c1ccccc1OC(F)(F)F)c1cccc(C(=O)Nc2c(Br)cc(C(F)(C(F)(F)F)C(F)(F)F)cc2OC(F)F)c1OC [Compound 136]
≥ 80%: [2]

CCN(C(=O)c1ccccc1OC(F)(F)F)c1cccc(C(=O)Nc2c(Cl)cc(C(F)(C(F)(F)F)C(F)(F)F)cc2OC(F)F)c1F [Compound 118]
≥ 80%: [1] | [2] | [4]
